Experimental data: paper PMC10497752, “Heparins are potent inhibitors of ectonucleotide pyrophosphatase/phospho-diesterase-1 (NPP1) – a promising target for the immunotherapy of cancer” (Frontiers in Immunology, 2023)
Like-named read-outs stand apart in the source and are kept apart here.

Columns and labels:
Format in all cases: biochemical
human NTPDase2 = molecular target: T1, human NTPDase2 (Homo sapiens, UniProt Q9Y5L3); experiment: NTPDase CE-based assay, NTPDase2; details: 20 µg/mL (12 µM); read-out: NTPDase2 inhibition, selectivity study
T1 construct: made in house; host or cells: COS-7 cells
T1 sequence (Q9Y5L3 1-495): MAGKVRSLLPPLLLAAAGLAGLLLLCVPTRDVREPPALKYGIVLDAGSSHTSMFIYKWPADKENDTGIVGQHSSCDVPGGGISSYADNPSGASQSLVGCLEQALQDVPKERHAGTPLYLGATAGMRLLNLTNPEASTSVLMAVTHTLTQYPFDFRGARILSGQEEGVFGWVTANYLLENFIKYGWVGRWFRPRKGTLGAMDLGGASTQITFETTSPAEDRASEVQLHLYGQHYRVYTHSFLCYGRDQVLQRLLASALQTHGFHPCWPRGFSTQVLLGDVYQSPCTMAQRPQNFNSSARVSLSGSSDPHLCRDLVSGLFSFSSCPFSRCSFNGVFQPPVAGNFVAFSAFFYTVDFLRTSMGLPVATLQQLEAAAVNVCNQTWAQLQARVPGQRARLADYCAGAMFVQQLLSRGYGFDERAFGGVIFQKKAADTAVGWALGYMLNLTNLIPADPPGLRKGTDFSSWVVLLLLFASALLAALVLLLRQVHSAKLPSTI
Description: For monitoring the activity of human NTPDases (subtypes 1, 2, 3 and 8) in the presence of test compounds, a CE-based assay system was used, according to a published procedure ([11], [25]). The following concentrations of test compounds were investigated in initial screening studies: 63 IU/mL of compounds 1 and 2, 30 µM of compound 6. For selectivity studies, the following concentration were employed: 50 IU/mL of 1, 12 µM of 6, and 48 µM of 7. The amount of enzyme was selected according to previously performed enzymatic titration, and adjusted to ensure a 10–20% conversion rate. Enzymes were obtained by transfection of COS-7 cells using plasmids encoding human NTPDase1 (GenBank accession number U87967) ([26]), NTPDase2 (NM_203468) ([27]), a kind gift of Dr. A.F. Knowles (San Diego, CA), NTPDase3 (AF034840) ([28]), a kind gift of Dr. T.L. Kirley (Cincinnati, OH) and human NTPDase8 (AY430414) ([29]) and purified as previously described ([30], [31]). The reaction buffer consisted of 10 mM HEPES, 2 mM CaCl2, and 1 mM MgCl2, pH 7.4. In the CE assay, the selected substrate concentration (ATP) was 100 µM for all studied human NTPDases (-1, -2, -3 and -8). […] The released products were separated by CE and quantified by their UV-absorption at 260 nm with ADP and AMP as external standards, as previously described ([11]); positive and negative controls were included.

human NPP1 [1] = experiment: NPP1 assay, capillary electrophoresis (CE)-based, ATP as substrate
Description: (§1) Concentration-inhibition curves of the test compounds at human NPP1 were performed with ATP as substrate at a final concentration of 400 μM. Several different dilutions of the test compounds were prepared in assay buffer (10 mM N-cyclohexyl-2-aminoethanesulfonic acid (CHES), 2 mM CaCl2, 1 mM MgCl2, pH 9.00) and incubated with 20 ng of human recombinant soluble NPP1 (Val191 - Leu591) expressed in murine myeloma NS0 cells obtained from R&D Systems GmbH (Wiesbaden, Germany, purity 95%, purified by using an N-terminal His-tag). For initial screening and selectivity analysis, NPP1 prepared as previously described ([20]), diluted in assay buffer, was used. The mixture of enzyme, substrate and test compound or buffer without test compound was incubated for 30 min at 37°C, and the reaction was terminated by heating at 90°C for 5 min. Capillary electrophoresis (CE) analysis was carried out to analyze the formation of the product. Data collection and peak area analysis were performed by the P/ACE MDQ software 32 KARAT obtained from Beckman Coulter (Fullerton, CA, USA). A polyacrylamide-coated capillary was used [30 cm (20 cm effective length) × 50 μm (id) × 360 μm (od) purchased from Chromatographie Service GmbH (Langerwehe, Germany)]. Samples were injected electro-kinetically by applying a voltage of -6 kV for 30 s. Finally, analytes were separated by applying a separation voltage of -20 kV, and detected by UV at 260 nm. The IC50 values were determined by nonlinear curve fitting using the GraphPad Prism Software 7.0. The mechanism of inhibition at human NPP1 was determined employing different concentrations of the investigated compounds 6 (at 0, 0.4, 4.0 µM), and 7 (at 0, 0.4 and 40 µM) versus four different substrate concentrations ranging from 50 to 500 μM of ATP. The assay procedure and operation conditions were the same as described above. The experiment was conducted twice, each in triplicates. A Lineweaver-Burk was calculated using GraphPad Prism 7.0 for predicting the inhibition type of the compound.

human NPP1 [2] = molecular target: T2, human NPP1 (Homo sapiens, UniProt P22413); experiment: as above; details: for IC50: human NPP1, 400 µM ATP, CE assay
T2 construct: human recombinant soluble NPP1 (Val191 - Leu591) expressed in murine myeloma NS0 cells; His-tag (N); purchased R&D Systems GmbH (Wiesbaden, Germany); host or cells: murine myeloma NS0 cells
T2 sequence (P22413 191-591): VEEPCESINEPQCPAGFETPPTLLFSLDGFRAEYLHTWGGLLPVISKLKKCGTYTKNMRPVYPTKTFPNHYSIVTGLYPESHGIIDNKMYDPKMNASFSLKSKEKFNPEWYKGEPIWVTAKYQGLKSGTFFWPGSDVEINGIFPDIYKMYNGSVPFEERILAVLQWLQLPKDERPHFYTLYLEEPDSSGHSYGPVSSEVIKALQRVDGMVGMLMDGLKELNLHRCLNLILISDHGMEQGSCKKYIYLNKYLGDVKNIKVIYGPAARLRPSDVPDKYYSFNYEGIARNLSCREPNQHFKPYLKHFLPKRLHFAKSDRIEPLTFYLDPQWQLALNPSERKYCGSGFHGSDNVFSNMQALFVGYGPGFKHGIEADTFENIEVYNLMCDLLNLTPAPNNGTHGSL
Description: as §1

inhibition at 12 µM (human NTPDase2): ~35% | inhibition type at human NPP1 (human NPP1 [2]; Lineweaver-Burk plots, ATP 50-500 µM): mixed-type | IC50 (human NPP1 [2]; read-out: IC50 ± SD (µg/ml) (converted)): 3.31 µM | IC50 (human NPP1 [2]; values of 1 and 2 estimated (1 IU = 0.002 mg; mean 16.5 kDa for heparin-sodium), read-out: IC50 ± SD): 2.94 ± 0.61 µM
SMILES: CO[C@H]1O[C@H](COS(=O)(=O)O)[C@@H](O[C@@H]2O[C@@H](C(=O)O)[C@@H](O[C@H]3O[C@H](COS(=O)(=O)O)[C@@H](O[C@@H]4O[C@H](C(=O)O)[C@@H](O[C@H]5O[C@H](COS(=O)(=O)O)[C@@H](O)[C@H](O)[C@H]5NS(=O)(=O)O)[C@H](O)[C@H]4O)[C@H](OS(=O)(=O)O)[C@H]3NS(=O)(=O)O)[C@H](O)[C@H]2OS(=O)(=O)O)[C@H](O)[C@H]1NS(=O)(=O)O [Compound 6, Fondaparinux]
NPP1 inhibition, selectivity study (human NPP1 [1]; 20 µg/mL (12 µM)): full inhibition | inhibition of human NPP1, initial screening (human NPP1 [1]; 50 µg/mL (30 µM)): almost complete inhibition
